# Values quoted from earlier work in patent US20100255118A1, “ORAL ZINC MEDICANTS USEFUL FOR SAFELY LOWERING FREE COPPER ABSORPTION AND FREE COPPER LEVELS” (priority 2007, published 2010).
# What was measured:
# [1] = infant rhesus monkeys
# [2] = adequate intake by mothers prior to pregnancy
# [3] = Wilson's patients
# [4] = humans, oral dose of Cu64 as copper acetate
compound,measurement,setting,value
[67Cu] [Cu^67],copper absorption,[1],50-70%
Nc1nc2ncc(CNc3ccc(C(=O)N[C@@H](CCC(=O)O)C(=O)O)cc3)nc2c(=O)[nH]1 [folic acid],reduction of the incidence of NTDs,[2],up to 70%
[Zn] [zinc],time to achieve intestinal metallothionein induction and a negative copper balance,[3],approximately two
same,copper balance induced (average),[3]; at the two week point,−0.35 mg daily
copper acetate,oral dose absorbed from the gastrointestinal tract,[4],about 65%
same,oral dose absorbed from the gastrointestinal tract (range),[4]; range,15-97%
